Columns and labels:
[1] = Stability test of analytes in rat plasma (QC samples); type: physicochemical; conditions: for 24 h Stability RE: autosampler at 4 °C for 24 h; for Short-Term Stability RE: room temperature for 4 h; for Freeze-Thaw Stability RE: three freeze-thaw cycles; for Long-Term Stability RE: −80 °C for a week
Description: Stability. To evaluate the stability of each component during analysis, QC samples at low, middle, and high concentrations (three samples for each concentration) were tested under different conditions, including placing QC samples in the autosampler at 4 °C for 24 h, at room temperature for 4 h, at −80 °C for a week, and three freeze-thaw cycles.

[2] = Pharmacokinetics in normal rats after oral administration of Zushima-Gancao extract (UHPLC-MS/MS of plasma); type: in vivo; conditions: male, Sprague-Dawley, rat, oral Zushima-Gancao extract 10 mL/kg single dose, n = 6, mean ± SD
Description: (§1) The plasma concentration–time curves (C-T curves) of nine analytes are presented in Figure 2, and the corresponding pharmacokinetic parameters, including Cmax, Tmax, AUC (0–t), AUC (0–∞) (AUC: area under concentration-time curve), and t1/2, were obtained using DAS 3.0 pharmacokinetic software (Chinese Pharmacological Association, China). Statistical differences between groups were analyzed using Student’s t-tests, and p-values less than 0.05 were considered statistically significant.
(§2) The chromatography experiment was carried out using a UHPLC system (Thermo Fisher, San Jose, CA, USA), equipped with a Hypersil GOLD C18 column (100 mm × 2.1 mm, 3 μm, Thermo Fisher, San Jose, CA, USA) maintained at 35 °C. The mobile phase consisted of 0.05% formic acid in water (Solvent A) and acetonitrile (Solvent B), and the flow rate was 0.3 mL/min. In order to completely separate all the analytes, the 10 min gradient elution program was used as follows: 0–1 min, 10% B; 1–5 min, 10–90% B; 5–6 min, 90–100% B; 6–8 min, 100% B; 8–9 min, 100–10% B; 9–10 min, 10% B, and the sample injection volume was 3 μL.
(§3) Mass spectrometry detection was operated on TSQ Vantage triple-stage quadrupole mass spectrometer (Thermo Fisher, San Jose, CA, USA) equipped with an electrospray ionization (ESI) source. Quantification of the analytes was performed using selective reaction monitor (SRM) in the negative ionization mode. Spray voltage, sheath gas pressure, auxiliary gas pressure, vaporizer temperature, and capillary temperature were set as 3.0 kV, 45 arb, 25 arb, 450 °C, and 350 °C, respectively.
(§4) Male Sprague–Dawley (SD) rats weighing 180–220 g (SCXK-2012-0002) were supplied by Silaike Lab Animals Ltd. (Shanghai, China). They were all kept in a stable condition (temperature, 22 ± 2 °C; relative humidity, 45–60%) with 12 h light/dark cycles for five days before animal experiments.
(§5) Rats were randomly divided into normal and AA groups with six rats in each group. The arthritic model rats were prepared as our previous research [19]. AA rats were intracutaneously injected with 0.1 mL of FAC in the left hind footpad and normal rats were injected with sterile saline. The FAC solution was prepared as follows: bacillus calmette-guerin (BCG) was bathed in water at 80 °C for 30 min, and then dissolved in a liquid paraffin–lanolin mixture (3:2, v/v). Immediately prior to use, the FAC solution were sterilized for 30 min at 120 °C.
(§6) After model construction, the rats were fed for 20 days. All rats were fasted for 12 h before drug administration, with free access to water. Each rat was administered with Zushima-Gancao extract at a single dose of 10 mL/kg. Blood samples (approximately 0.3 mL) were collected into heparinized micro-centrifuge tubes from the postorbital venous plexus veins of rats at specific time points of 0, 0.08, 0.17, 0.33, 0.5, 1, 2, 3, 5, 8, 12, 24, and 36 h. All blood samples were centrifuged immediately at 5000 rpm for 6 min, and the plasma were obtained and stored at −80 °C until analysis.
(§7) A liquid–liquid extraction (LLE) method was applied to extract the compounds from thawed rat plasma samples, aliquots of 100 μL plasma sample were transferred into a 1.5 mL Eppendorf tube, and 10 μL of methanol, 10 μL of hydrochloric acid (2 mol/L), and 10 μL of IS (130 ng/mL) were added separately. The mixture was vortexed for 30 s, and 500 μL of ethyl acetate was added and mixed by vortexing for 10 min. The supernatant (about 450 μL) was transferred into another tube after centrifugation at 16,000 rpm for 10 min and then evaporated to dryness at 45 °C, 15 kPa in a Thermo SPD1010-230 SpeedVac Concentrator (Thermo Fisher, San Jose, CA, USA). The residue was dissolved in 100 μL of initial mobile phase by vortexing for 5 min, and a further centrifugation at 17,000 rpm for 10 min was applied after the residue was re-dissolved. The supernatant was injected into the UHPLC-MS/MS system for analysis.

[3] = Pharmacokinetics in adjuvant-induced arthritis (AA) rats after oral administration of Zushima-Gancao extract (UHPLC-MS/MS of plasma); conditions: for change of Cmax in AA rats versus normal rats: p < 0.05
Description: as §1, §2, §3, §4, §5, §6, §7

[4] = AA rats versus normal rats, oral Zushima-Gancao extract
[5] = male, Sprague-Dawley, rat, plasma, po, 10 mL/kg
[6] = male, Sprague-Dawley, rat, in vivo, po, 10 mL/kg

| SMILES | 24 h Stability RE ([1]; high concentration) | Short-Term Stability RE ([1]; high concentration) | Freeze-Thaw Stability RE ([1]; high concentration) | Long-Term Stability RE ([1]; high concentration) | 24 h Stability RE ([1]; low concentration) | Short-Term Stability RE ([1]; low concentration) | Freeze-Thaw Stability RE ([1]; low concentration) | Long-Term Stability RE ([1]; low concentration) | 24 h Stability RE ([1]; middle concentration) | Short-Term Stability RE ([1]; middle concentration) | Freeze-Thaw Stability RE ([1]; middle concentration) | Long-Term Stability RE ([1]; middle concentration) | AUC(0-inf) [2] | AUC(0-t) [2] | Cmax [2] | Tmax [2] | half-life [2] | AUC(0-inf) [3, 5] | AUC(0-t) [3, 5] | Cmax [3, 5] | further results |
| --- | --- | --- | --- | --- | --- | --- | --- | --- | --- | --- | --- | --- | --- | --- | --- | --- | --- | --- | --- | --- | --- |
| O=c1ccc2ccc(O)c(O)c2o1 [DPH, daphnetin] | −11.8% | −12.42% | −14.04% | −12.23% | −13.85% | −7.83% | −6.29% | −12.07% | −13.73% | −12.68% | −8.25% | −15% | 256 ± 54.8 ng·h/mL | 246 ± 53.9 ng·h/mL | 214 ± 32.5 ng/mL | 14.4 ± 6.6 min | 204 ± 57.6 min | 167 ± 49 ng·h/mL | 165 ± 49.4 ng·h/mL | 201 ± 108 ng/mL | decrease of AUC (0–∞) compared with the normal group [3, 4]: 34.56%; change of t1/2 in AA rats versus normal rats ([3]; AA versus normal rats): remarkable decrease; Tmax [3, 5]: 12 ± 4.2 min; half-life [3, 5]: 124 ± 15.6 min |
| COc1cc2cc(Oc3ccc4ccc(=O)oc4c3)c(=O)oc2cc1O [DR, daphnoretin] | −6.11% | −5.38% | −9.71% | −13.85% | −11.79% | −13.63% | 0.05% | −12.79% | −11.33% | −13.99% | −14.22% | −14.41% | 163 ± 78.7 ng·h/mL | 131 ± 58.1 ng·h/mL | 14.4 ± 3.31 ng/mL | 23.4 ± 18.6 min | 872 ± 175 min | 154 ± 79.8 ng·h/mL | 86.2 ± 33.8 ng·h/mL | 7.06 ± 3.82 ng/mL | change of Cmax in AA rats versus normal rats ([3]; AA versus normal rats): decreased remarkably; Tmax [3, 5]: 25.2 ± 18.6 min; half-life [3, 5]: 1700 ± 563 min |
| CC1(C)[C@@H](O)CC[C@]2(C)[C@H]3C(=O)C=C4[C@@H]5C[C@@](C)(C(=O)O)CC[C@]5(C)CC[C@@]4(C)[C@]3(C)CC[C@@H]12 [GA, glycyrrhetinic acid] | 14.35% | 13.05% |  | 9.57% | 13.49% | 2.08% |  | 0.04% | 14.1% | −3.38% |  | 5.44% | 1960 ± 1260 ng·h/mL | 1940 ± 1240 ng·h/mL | 167 ± 93 ng/mL | 520 ± 97.8 min | 233 ± 77.4 min | 4330 ± 1860 ng·h/mL | 4260 ± 1860 ng·h/mL | 418 ± 296 ng/mL | increase of AUC (0–∞) in model rats compared to normal rats [3, 4]: 2.2 fold; increase of AUC(0–t) in model rats compared to normal rats [3, 4]: 2.2 fold; Tmax [3, 5]: 560 ± 124 min; half-life [3, 5]: 296 ± 146 min |
| CC1(C)[C@@H](O[C@H]2O[C@H](C(=O)O)[C@@H](O)[C@H](O)[C@H]2O[C@@H]2O[C@H](C(=O)O)[C@@H](O)[C@H](O)[C@H]2O)CC[C@]2(C)[C@H]3C(=O)C=C4[C@@H]5C[C@@](C)(C(=O)O)CC[C@]5(C)CC[C@@]4(C)[C@]3(C)CC[C@@H]12 [GL, glycyrrhizin] | 13.22% | 13.85% | 14.36% | 9.2% | 11.79% | 10.26% | 10.89% | 11.48% | 11.8% | 10.68% | 14.3% | 9.96% | 267 ± 49.7 ng·h/mL | 248 ± 47.8 ng·h/mL | 29 ± 10.5 ng/mL | 34.8 ± 21 min | 523 ± 289 min | 187 ± 64.6 ng·h/mL | 184 ± 61.7 ng·h/mL | 24.9 ± 7.81 ng/mL | decrease of AUC (0–∞) compared with the normal group [3, 4]: 29.89%; change of Tmax in AA rats versus normal rats ([3]; AA versus normal rats): obvious increase; Tmax [3, 5]: 290 ± 158 min; half-life [3, 5]: 293 ± 182 min |
| O=c1ccc2ccc(O)cc2o1 [HDC, 7-hydroxycoumarin] | 1.39% | 3.09% | 2.64% | −0.05% | −1.43% | −13.86% | −13.48% | −10.07% | −0.85% | −5.72% | −1.27% | −1.8% | 148 ± 24.9 ng·h/mL | 142 ± 24.4 ng·h/mL | 193 ± 29.3 ng/mL | 13.2 ± 4.8 min | 172 ± 116 min | 131 ± 29.1 ng·h/mL | 127 ± 26.8 ng·h/mL | 179 ± 98 ng/mL | Tmax [3, 5]: 13.2 ± 4.8 min; half-life [3, 5]: 151 ± 109 min |
| O=C(/C=C/c1ccc(O)cc1)c1ccc(O)cc1O [ILG, isoliquiritigenin] | 10.13% | 12.09% | 7.59% | 13.23% | 8.75% | −3.23% | 2.53% | −11.29% | 10.08% | 11.76% | 12.3% | 12.68% | 12.4 ± 6.97 ng·h/mL | 8.89 ± 3.12 ng·h/mL | 2.77 ± 0.83 ng/mL | 8.4 ± 3 min | 64.8 ± 40.2 min | 8.48 ± 3.04 ng·h/mL | 8.25 ± 2.9 ng·h/mL | 1.92 ± 0.55 ng/mL | change of Tmax in AA rats versus normal rats ([3]; AA versus normal rats): obvious increase; Tmax [3, 5]: 222 ± 126 min; half-life [3, 5]: 83.4 ± 39 min |
| O=C(/C=C/c1ccc(O[C@@H]2O[C@H](CO)[C@@H](O)[C@H](O)[C@H]2O)cc1)c1ccc(O)cc1O [ILQ, isoliquiritin] | 6.64% | 3.29% | 4.51% | 2.66% | 4.99% | 9.08% | −2.51% | 7.49% | 5.33% | 12.35% | −6.3% | 5.37% | 6.74 ± 0.6 ng·h/mL | 6.72 ± 0.6 ng·h/mL | 8.92 ± 1.68 ng/mL | 10.2 ± 5.4 min | 31.2 ± 12 min |  |  |  | decrease of AUC (0–∞) compared with the normal group [3, 4]: 39.02%; Tmax ([3]; AA rats, oral Zushima-Gancao extract 10 mL/kg single dose, plasma, n = 6, mean ± SD): 21.6 ± 7.8 min; change of Tmax in AA rats versus normal rats ([3]; AA versus normal rats): obvious increase; change of Cmax in AA rats versus normal rats ([3]; AA versus normal rats): decreased remarkably; AUC(0-inf) [3, 6]: 4.11 ± 1.12 ng·h/mL; AUC(0-t) [3, 6]: 4.04 ± 1.2 ng·h/mL; Cmax [3, 6]: 4.63 ± 3.64 ng/mL; half-life [3, 6]: 56.4 ± 49.8 min |
| O=C1C[C@@H](c2ccc(O)cc2)Oc2cc(O)ccc21 [LG, liquiritigenin] | 8.56% | 1.5% | 6.75% | 3.89% | 6.72% | 9.76% | 7.22% | 2.87% | 8.15% | 11.16% | 7.96% | 0.58% | 170 ± 62.5 ng·h/mL | 169 ± 62.4 ng·h/mL | 23.9 ± 3.72 ng/mL | 232 ± 119 min | 99.6 ± 26.4 min | 194 ± 84.4 ng·h/mL | 193 ± 83.2 ng·h/mL | 29.7 ± 10.7 ng/mL | Tmax [3, 5]: 282 ± 151 min; half-life [3, 5]: 138 ± 57 min |
| O=C1C[C@@H](c2ccc(O[C@@H]3O[C@H](CO)[C@@H](O)[C@H](O)[C@H]3O)cc2)Oc2cc(O)ccc21 [LQ, liquiritin] | 4.89% | 5.23% | 7.92% | 7.57% | 2.03% | −9.95% | 13.76% | 8.14% | 3.31% | 0.14% | −5.95% | −0.13% | 45.5 ± 3.9 ng·h/mL | 45.5 ± 3.89 ng·h/mL | 58.8 ± 12.5 ng/mL |  | 28.2 ± 9 min | 34.4 ± 8.89 ng·h/mL | 33.1 ± 6.8 ng·h/mL | 30.1 ± 13.8 ng/mL | decrease of AUC (0–∞) compared with the normal group [3, 4]: 24.57%; change of Cmax in AA rats versus normal rats ([3]; AA versus normal rats): decreased remarkably; Tmax [3, 5]: 12.6 ± 6 min; half-life [3, 5]: 45 ± 39 min |
